{"source": "patent US11285130B2", "about": "“Treatment of mitochondrial diseases” (Khondrion IP B.V., priority 2017, dated 2022)", "key": {"[1]": {"assay": "MAD study pharmacokinetic analysis", "format": "in vivo, human", "conditions": "for AUC / Cmax / Tmax: male, human, plasma, oral; for Cmax: read-out: Cmax (Geomean); for Tmax: read-out: tmax* (median)", "method": "Dose escalation to the next dose level was done after evaluation of the safety and the first 24-hour pharmacokinetic results of the previous dose. […] Anticipated exposures at this starting dose were just below the Minimum Anticipated Biological Effect Level (MABEL). Placebo (an in taste and appearance matching oral liquid) was also administered orally on one occasion in the single-ascending dose part and b.i.d. for 7 Days in the MAD part. […] All samples were stored at <-70° C. until analysis. […] For mean value calculations, all values below the limit of quantification (LOQ) were set to zero. […] The non-compartmental pharmacokinetic analysis was performed using Phoenix, Version 6.3 (Pharsight Corporation, Mountain View, Calif., USA). […] The PK parameters were calculated on the basis of the actual blood sampling time points relative to dosing. Selected pharmacokinetic parameters (Cmax, tmax, t1/2, AUClast and AUC0-int) following single-dose administration and selected pharmacokinetic parameters Cmax, tmax, [NT], the accumulation factor (Racc) and time to reach steady state) following multiple dose administration were determined. In urine, the percentage of dose excreted in urine was determined for the single- and multiple-dose administration."}, "[2]": {"system": "primary human fibroblasts from patients with MELAS", "assay": "Oxidative stress-induced cell death (BSO) assay, MELAS patient fibroblasts", "format": "cell-based", "conditions": "Homo sapiens, Fibroblast; fibroblasts derived from MELAS patients, 100 μM BSO; unit as printed for KH176; read-out: EC50, protection from oxidative stress-induced cell death", "excerpt": "To determine the effective concentration of the compounds (the concentrations that protect patient cells against oxidative stress-induced cell death) the applicant established an assay using stressed primary human fibroblasts from patients with Leigh syndrome, MELAS or LHON diseases. Utilising the inherent oxidative stress of fibroblasts from patients with mitochondrial disease, their oxidative burden was further increased by depleting cellular glutathione with an inhibitor of glutathione synthesis, L-buthionine-(S,R)-sulfoximine (BSO). […] Cells were seeded at a density of 3000 cells/well in a 96-well format and incubated with increasing concentrations of compounds in combination with BSO (100 μM, Sigma-aldrich). One day after treatment, the cells were washed twice and stained with a solution of 5 μM calcein-AM (Life technologies C3100MP) during 25 min in 199 medium without phenol red (Life technologies, 11043-023) at room temperature. After 2 washes with PBS (Phosphate buffered saline) the plate was read on a fluorescence plate reader (Fluostar Omega, BMG labtech) and the percentage of cell viability determined as a function of fluorescence intensity."}, "[3]": {"conditions": "100 mg, MAD, KH176 100 mg b.i.d, Day 1"}, "[4]": {"conditions": "100 mg, MAD, KH176 100 mg b.i.d, Day 7"}, "[5]": {"conditions": "200 mg, MAD, KH176 200 mg b.i.d, Day 1"}, "[6]": {"conditions": "200 mg, MAD, KH176 200 mg b.i.d, Day 7"}, "[7]": {"conditions": "400 mg, MAD, KH176 400 mg b.i.d, Day 1"}, "[8]": {"conditions": "400 mg, MAD, KH176 400 mg b.i.d, Day 7"}}, "note": "Read-outs that look alike come from different tables or passages of the source."}
{"molecule": "Cc1c(C)c2c(c(C)c1O)CC[C@@](C)(C(=O)N[C@@H]1CCCNC1)O2.Cl", "note": "[KH176, (S)-6-hydroxy-2,5,7,8-tetramethyl-N-((R)-piperidin-3-yl)chroman-2-carboxamide hydrochloride]", "values": [{"measurement": "Racc (accumulation ratio, Geomean)", "setting": "[1]; MAD, KH176 100 mg b.i.d, Day 7", "result": 2.52}, {"measurement": "Racc (accumulation ratio, Geomean)", "setting": "[1]; MAD, KH176 200 mg b.i.d, Day 7", "result": 2.65}, {"measurement": "Racc (accumulation ratio, Geomean)", "setting": "[1]; MAD, KH176 400 mg b.i.d, Day 7", "result": 2.17}, {"measurement": "steady concentrations reached by (first trough measurement)", "setting": "[1]; MAD, mean trough concentration-time curves", "result": "≤ 4", "unit": "days"}, {"measurement": "AUC", "setting": "[1]; 100 mg, MAD, KH176 100 mg b.i.d, Day 1, read-out: AUCtau (Geomean)", "result": 1090, "unit": "ng·h/mL"}, {"measurement": "Cmax", "setting": "[1]; [3]", "result": 184, "unit": "ng/mL"}, {"measurement": "Tmax", "setting": "[1]; [3]", "result": 1.25, "unit": "h"}, {"measurement": "AUC", "setting": "[1]; 100 mg, MAD, KH176 100 mg b.i.d, Day 7, read-out: AUCtau (Geomean)", "result": 2760, "unit": "ng·h/mL"}, {"measurement": "Cmax", "setting": "[1]; [4]", "result": 353, "unit": "ng/mL"}, {"measurement": "Tmax", "setting": "[1]; [4]", "result": 1, "unit": "h"}, {"measurement": "AUC", "setting": "[1]; 200 mg, MAD, KH176 200 mg b.i.d, Day 1, read-out: AUCtau (Geomean)", "result": 2250, "unit": "ng·h/mL"}, {"measurement": "Cmax", "setting": "[1]; [5]", "result": 313, "unit": "ng/mL"}, {"measurement": "Tmax", "setting": "[1]; [5]", "result": 1.75, "unit": "h"}, {"measurement": "AUC", "setting": "[1]; 200 mg, MAD, KH176 200 mg b.i.d, Day 7, read-out: AUCtau (Geomean)", "result": 5960, "unit": "ng·h/mL"}, {"measurement": "Cmax", "setting": "[1]; [6]", "result": 748, "unit": "ng/mL"}, {"measurement": "Tmax", "setting": "[1]; [6]", "result": 2, "unit": "h"}, {"measurement": "AUC", "setting": "[1]; 400 mg, MAD, KH176 400 mg b.i.d, Day 1, read-out: AUCtau (Geomean)", "result": 6890, "unit": "ng·h/mL"}, {"measurement": "Cmax", "setting": "[1]; [7]", "result": 1330, "unit": "ng/mL"}, {"measurement": "Tmax", "setting": "[1]; [7]", "result": 1, "unit": "h"}, {"measurement": "AUC", "setting": "[1]; 400 mg, MAD, KH176 400 mg b.i.d, Day 7, read-out: AUCtau (Geomean)", "result": 14900, "unit": "ng·h/mL"}, {"measurement": "Cmax", "setting": "[1]; [8]", "result": 2100, "unit": "ng/mL"}, {"measurement": "Tmax", "setting": "[1]; [8]", "result": 1.5, "unit": "h"}, {"measurement": "AUC", "setting": "[1]; steady state, BID, read-out: AUCtau (one dosing interval, 12 hours), range", "result": "2130 to 3680", "unit": "ng·h/mL"}, {"measurement": "average concentrations, range", "setting": "[1]; steady state, 100 mg BID", "result": "177.5 to 306.6", "unit": "ng/mL"}, {"measurement": "maximum concentration, range", "setting": "[1]; steady state, 100 mg BID, healthy subjects", "result": "303 to 458", "unit": "ng/mL"}, {"measurement": "EC50", "setting": "[2]", "result": 182, "unit": "nM"}]}
